For three compounds, cell viability results are on record in patent US20220273684A1, “Systems and Methods to Identify Pancreatic Ductal Adenocarcinoma and Uses Thereof” (The Board of Trustees of the Leland Stanford Junior …, priority 2021, published 2022).

Test [1] relates to acinar cell-derived PDAC cell lines. Kind of test: Cell viability assay (MTT) after incubation with drug, acinar cell-derived PDAC cell lines. The class given is cell-based. As to the method:
(§1) FIGS. 4A-4E illustrate exemplary data that acinar and ductal cell-derived pancreatic cancer cells have different sensitivities to multiple therapeutic agents in accordance with various embodiments of the invention. FIG. 4A illustrates an exemplary method to identify agents to treat specific types of tumors and/or treating an individual based on tumor signature. FIG. 4B illustrates a schematic of the experimental setup. FIG. 4C illustrates cell viability after a 24 hour incubation with 25 μM of GSK-3β inhibitor, TDZD-8. FIG. 4D illustrates cell viability after a 48 hour incubation with 1 mM of glucose analog, 2-DG. FIG. 4E illustrates cell viability after a 72 hour incubation with 100 μM of AKT kinase inhibitor, Capivasertib.
Turning to FIGS. 4A-4E, various embodiments are capable of identifying agents to treat specific types of tumors and/or treating an individual based on tumor signature. Specifically, FIG. 4A illustrates a method 400 to test one or more treatments against tumor-derived cells. At 402, many embodiments obtain one or more cultures of cells. […]
Turning back to FIG. 4A, after treatment, many embodiments assess cellular growth at 408. Cellular growth can be assessed manually or automatedly. […]

Test [2] concerns ductal cell-derived PDAC cell lines. Briefly: Cell viability assay (MTT) after incubation with drug, ductal cell-derived PDAC cell lines. The conditions noted are these: 72 hour incubation with 100 μM Capivasertib; ductal cell-derived relative to acinar cell-derived PDAC lines (FIG. 4E). In kind it is cell-based. As to the method:
as §1, with “Capivasertib. Turning to FIGS. 4A-4E, various embodiments are capable of identifying agents to treat specific types of tumors and/or treating an individual based on tumor signature. Specifically, FIG. 4A illustrates a method 400 to test one or more treatments against tumor-derived cells. At 402, many embodiments obtain one or more cultures of cells. In various embodiments, the derived tumor cells are obtained as an admixture of cells, while some embodiments obtain cells as a single type (e.g., healthy, acinar cell-derived, or ductal cell-derived). […] Cellular growth can be assessed manually or automatedly. […]” for “Capivasertib.”

Take `OCC1OC(O)CC(O)C1O` (stereo not drawn) [2-DG]: the cell viability result in test [1] (48 hour incubation with 1 mM 2-DG, acinar cell-derived relative to ductal cell-derived PDAC lines (FIG. 4D)) is on record as “increased viability”.

For `NC1(C(=O)N[C@@H](CCO)c2ccc(Cl)cc2)CCN(c2ncnc3[nH]ccc23)CC1` [Capivasertib], the cell viability entry in test [2] was “increased viability”.

As to `Cn1sc(=O)n(Cc2ccccc2)c1=O` [TDZD-8], in test [1] (24 hour incubation with 25 μM TDZD-8, acinar cell-derived relative to ductal cell-derived PDAC lines (FIG. 4C)), the cell viability entry is “increased viability”.
